Assay results as given in ChEMBL document CHEMBL1201862, “PubChem BioAssay data set” (2004).
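These data come from cells grown in 96-well plates and exposed to compound for 48 hours at five concentrations. GI50 marks 50% less growth.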 Activity calls are given as the source filed them. Rule as the data show it: active = GI50 up to about 1.1 µM and inactive = higher.

Columns and labels:
Experiment in all cases: NCI tumour cell line growth inhibition, 48 h
[1] = test system: A498
[2] = test system: SF-539
[3] = test system: BT-549
[4] = test system: SK-OV-3
[5] = test system: PC-3
[6] = test system: 786-0
[7] = test system: ACHN
[8] = test system: U-251
[9] = test system: SNB-75
[10] = test system: COLO 205
[11] = test system: CCRF-CEM
[12] = test system: IGROV-1
[13] = test system: MDA-MB-231
[14] = test system: SW-620
[15] = test system: SN12C
[16] = test system: UACC-62
[17] = test system: HCT-116
[18] = test system: OVCAR-4
[19] = test system: UO-31
[20] = test system: TK-10
[21] = test system: RXF 393
[22] = test system: NCI-H23
[23] = test system: OVCAR-3
[24] = test system: K562
[25] = test system: M14
[26] = test system: SK-MEL-5
[27] = test system: LOX IMVI
[28] = test system: UACC-257
[29] = test system: RPMI-8226
[30] = test system: SNB-19
[31] = test system: A549
[32] = test system: SF-268
[33] = test system: KM12
[34] = test system: HOP-92
[35] = test system: SK-MEL-28
[36] = test system: Malme-3M
[37] = test system: OVCAR-5
[38] = test system: HT-29
[39] = test system: NCI-H226
[40] = test system: HCT-15
[41] = test system: Hs-578T
[42] = test system: SR
[43] = test system: MDA-MB-435
[44] = test system: MCF7
[45] = test system: HOP-62
[46] = test system: DU-145
[47] = test system: HCC 2998
[48] = test system: MDA-N
[49] = test system: NCI/ADR-RES
[50] = test system: HL-60
[51] = test system: NCI-H460
[52] = test system: T47D
[53] = test system: SK-MEL-2
[54] = test system: CAKI-1
[55] = test system: SF-295
[56] = test system: MOLT-4
[57] = test system: EKVX
[58] = test system: OVCAR-8

Clc1ccc(-c2cn3c(nc4ccccc43)c(/C=C/c3cccs3)n2)cc1
GI50 [1]: > 100 µM (inactive)
GI50 [2]: > 100 µM (inactive)
GI50 [3]: > 100 µM (inactive)
GI50 [4]: > 100 µM (inactive)
GI50 [5]: 44.9 µM (inactive)
GI50 [6]: > 100 µM (inactive)
GI50 [7]: > 100 µM (inactive)
GI50 [8]: 95.7 µM (inactive)
GI50 [9]: > 100 µM (inactive)
GI50 [10]: > 100 µM (inactive)
GI50 [11]: 45 µM (inactive)
GI50 [12]: 92 µM (inactive)
GI50 [13]: 53.7 µM (inactive)
GI50 [14]: > 100 µM (inactive)
GI50 [15]: > 100 µM (inactive)
GI50 [16]: > 100 µM (inactive)
GI50 [17]: 97.9 µM (inactive)
GI50 [18]: 34.7 µM (inactive)
GI50 [19]: > 100 µM (inactive)
GI50 [20]: 86.1 µM (inactive)
GI50 [21]: > 100 µM (inactive)
GI50 [22]: 52.5 µM (inactive)
GI50 [23]: > 100 µM (inactive)
GI50 [24]: 49.1 µM (inactive)
GI50 [25]: > 100 µM (inactive)
GI50 [26]: > 100 µM (inactive)
GI50 [27]: > 100 µM (inactive)
GI50 [28]: 52.6 µM (inactive)
GI50 [29]: 36.5 µM (inactive)
GI50 [30]: > 100 µM (inactive)
GI50 [31]: > 100 µM (inactive)
GI50 [32]: 72.8 µM (inactive)
GI50 [33]: 33.7 µM (inactive)
GI50 [34]: > 100 µM (inactive)
GI50 [35]: > 100 µM (inactive)
GI50 [36]: > 100 µM (inactive)
GI50 [37]: > 100 µM (inactive)
GI50 [38]: > 100 µM (inactive)
GI50 [39]: > 100 µM (inactive)
GI50 [40]: > 100 µM
GI50 [41]: 43.8 µM (inactive)
GI50 [42]: 5.09 µM (inactive)
GI50 [43]: 37.3 µM (inactive)
GI50 [44]: 7.08 µM (inactive)
GI50 [45]: > 100 µM (inactive)
GI50 [46]: > 100 µM (inactive)
GI50 [47]: > 100 µM (inactive)
GI50 [48]: > 100 µM (inactive)
GI50 [49]: > 100 µM (inactive)
GI50 [50]: > 100 µM (inactive)
GI50 [51]: 67.8 µM (inactive)
GI50 [52]: 27.3 µM (inactive)
GI50 [53]: 41.6 µM (inactive)

Cn1c(=O)c2c(nc3sc4nc5ccccc5nc4n32)n(C)c1=O
GI50 [1]: > 100 µM (inactive)
GI50 [54]: > 100 µM (inactive)
GI50 [2]: > 100 µM (inactive)
GI50 [3]: > 100 µM (inactive)
GI50 [4]: > 100 µM (inactive)
GI50 [5]: > 100 µM (inactive)
GI50 [6]: > 100 µM (inactive)
GI50 [55]: 49.5 µM (inactive)
GI50 [7]: > 100 µM (inactive)
GI50 [8]: > 100 µM (inactive)
GI50 [9]: 34.8 µM (inactive)
GI50 [10]: > 100 µM (inactive)
GI50 [11]: > 100 µM (inactive)
GI50 [12]: > 100 µM (inactive)
GI50 [56]: > 100 µM (inactive)
GI50 [13]: > 100 µM (inactive)
GI50 [15]: 85.9 µM (inactive)
GI50 [16]: > 100 µM (inactive)
GI50 [17]: > 100 µM (inactive)
GI50 [19]: > 100 µM (inactive)
GI50 [57]: > 100 µM (inactive)
GI50 [20]: > 100 µM (inactive)
GI50 [21]: > 100 µM (inactive)
GI50 [22]: > 100 µM (inactive)
GI50 [23]: > 100 µM (inactive)
GI50 [24]: > 100 µM (inactive)
GI50 [25]: > 100 µM (inactive)
GI50 [26]: 32.7 µM (inactive)
GI50 [27]: 92.3 µM (inactive)
GI50 [28]: > 100 µM (inactive)
GI50 [58]: > 100 µM (inactive)
GI50 [29]: > 100 µM (inactive)
GI50 [30]: > 100 µM (inactive)
GI50 [31]: > 100 µM (inactive)
GI50 [32]: > 100 µM (inactive)
GI50 [33]: > 100 µM (inactive)
GI50 [34]: > 100 µM (inactive)
GI50 [36]: > 100 µM (inactive)
GI50 [37]: > 100 µM (inactive)
GI50 [38]: > 100 µM (inactive)
GI50 [39]: > 100 µM (inactive)
GI50 [40]: > 100 µM
GI50 [41]: > 100 µM (inactive)
GI50 [42]: > 100 µM (inactive)
GI50 [43]: > 100 µM (inactive)
GI50 [44]: > 100 µM (inactive)
GI50 [46]: > 100 µM (inactive)
GI50 [47]: > 100 µM (inactive)
GI50 [48]: > 100 µM (inactive)
GI50 [49]: > 100 µM (inactive)
GI50 [50]: > 100 µM (inactive)
GI50 [51]: > 100 µM (inactive)
GI50 [52]: > 100 µM (inactive)
